The values that follow are results of earlier work, collected in PMC6458983 (Cancer Chemotherapy and Pharmacology, 2019).

The conditions of this data set: cited from earlier work.

For the compound `C#Cc1cccc(Nc2ncnc3cc(OCCOC)c(OCCOC)cc23)c1` [erlotinib], the trough plasma concentration result (patient case study, at the time of ILD diagnosis) is recorded as “elevated”. Further, the “median trough concentrations versus patients without ILD” value (three patients at the time of suspected ILD) is listed as “approximately three times higher”.
